In article PMC2697495 (The Journal of pharmacy and pharmacology, 2008):

Legend:
[1] = biological target: T1, UGT2B7 (Homo sapiens, UniProt P16662); test: AZT glucuronidation by recombinant UGT2B7; assay type: biochemical; settings: 500 μM AZT, n=3
T1 sequence (P16662 24-529): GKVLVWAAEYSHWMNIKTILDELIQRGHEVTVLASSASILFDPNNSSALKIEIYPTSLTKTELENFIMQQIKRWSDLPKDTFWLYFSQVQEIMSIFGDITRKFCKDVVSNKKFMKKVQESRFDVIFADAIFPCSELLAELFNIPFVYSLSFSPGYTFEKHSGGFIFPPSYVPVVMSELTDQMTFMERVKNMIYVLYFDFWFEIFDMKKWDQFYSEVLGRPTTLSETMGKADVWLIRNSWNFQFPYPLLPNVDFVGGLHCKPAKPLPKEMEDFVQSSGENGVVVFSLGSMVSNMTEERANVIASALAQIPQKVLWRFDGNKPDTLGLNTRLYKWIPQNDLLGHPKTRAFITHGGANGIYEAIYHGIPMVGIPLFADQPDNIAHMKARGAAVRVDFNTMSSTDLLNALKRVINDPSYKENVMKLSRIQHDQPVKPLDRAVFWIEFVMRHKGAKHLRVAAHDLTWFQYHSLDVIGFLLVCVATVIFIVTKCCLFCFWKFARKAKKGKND

[2] = biological target: T2, UGT1A3 (Homo sapiens, UniProt P35503); test: Estradiol-3 glucuronidation by recombinant UGT1A3; assay type: biochemical; settings: for Estradiol-3 glucuronidation, % of the control activity (measured at 0 mM): UGT1A3, 100 μM estradiol, n=3
T2 sequence (P35503 29-534): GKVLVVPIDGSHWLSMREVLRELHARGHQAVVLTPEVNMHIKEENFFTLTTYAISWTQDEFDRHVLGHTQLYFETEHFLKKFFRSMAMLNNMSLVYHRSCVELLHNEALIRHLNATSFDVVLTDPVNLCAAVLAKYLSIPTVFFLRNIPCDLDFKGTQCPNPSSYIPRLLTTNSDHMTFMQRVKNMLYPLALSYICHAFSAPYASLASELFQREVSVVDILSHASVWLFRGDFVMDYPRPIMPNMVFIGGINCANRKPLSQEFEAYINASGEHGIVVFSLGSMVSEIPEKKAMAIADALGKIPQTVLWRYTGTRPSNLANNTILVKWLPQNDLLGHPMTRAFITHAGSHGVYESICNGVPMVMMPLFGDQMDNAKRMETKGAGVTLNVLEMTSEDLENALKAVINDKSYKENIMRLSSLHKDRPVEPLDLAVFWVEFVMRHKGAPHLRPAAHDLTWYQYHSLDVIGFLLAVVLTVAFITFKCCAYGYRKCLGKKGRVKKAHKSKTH

O=C(O)[C@@H](O)[C@H]1OC(=O)[C@H](O)[C@H]1O [saccharolactone, D-saccharic acid 1,4-lactone]
AZT glucuronidation, % of the control activity (measured at 0 mM) ([1]; 5 mM saccharolactone): 102±2%
AZT glucuronidation, % of the control activity (measured at 0 mM) ([1]; 20 mM saccharolactone): 102±8%
Estradiol-3 glucuronidation, % of the control activity (measured at 0 mM) ([2]; 5 mM saccharolactone): 92±18%
Estradiol-3 glucuronidation, % of the control activity (measured at 0 mM) ([2]; 20 mM saccharolactone): 97±10%
effect on estradiol glucuronidation ([2]; recombinant UGT1A3): no effect
